Source: patent publication US12145943B2, “Solid forms of 3-(5-Fluorobenzofuran-3-yl)-4-(5-methyl-5H-[1,3]dioxolo[4,5-f]indol-7-yl)pyrrole-2,5-dione” (Actuate Therapeutics Inc., priority 2017, dated 2024)
≈ marks a conversion by molar mass, not a printed value.

Key:
Type in all cases: physicochemical
[1] = Solubility in 30% acetonitrile in water (HPLC of filtrate, XRPD of remaining solids)
Protocol: The solubility of 9-ING-41 polymorphic forms in 30% Acetonitrile in water was determined using HPLC under the following conditions: • Instrument: Agilent 1260 Infinity Series • Diluent: 30% acetonitrile aqueous solution • Flow rate: 1.5 mL/min • Mobile phase: A: 0.05% TFA in water • B: 0.05% TFA in acetonitrile • Injection volume: […] • Column: XDB-C18, 4.6*50 mm, 1.8 μm • Column Temperature: 40° C. • Detection: 220 nm • Run Time: 8 minutes (2 minutes delay for next injection) • Gradient (T/B %): 0.0/70, 6.0/100, 8.0/100
About 5 mg of 9-ING-41 Form I was added into 2 mL of 30% acetonitrile/70% water (vol/vol). The sample was shaken at 200 rpm in a shaker for 24 h. The vial was visually examined to ensure saturation. 1 mL of the suspension was filtered through a 0.22 µm nylon syringe filter into another clean clear glass vial at 2 hours and at 24 hours. The filtrates were analyzed using HPLC (accurately dilute if necessary) and the remaining solids were analyzed using XRPD.

[2] = Mechanical and pressure effects on crystalline form (XRPD)
Protocol: XRPD analyses were performed using an X-ray diffractometer (Bruker D8 advance) equipped with LynxEye detector. The instrument parameters were listed below. • Scan: 3° (2θ) to 40° (2θ) • Increment: 0.02° (2θ) • Scan speed: 0.3 sec/step • Voltage: 40 KV • Current: 40 mA • Rotation: On • Sample hold: Zero-background sample holder TGA Analysis 9.90 mg of 9-ING-41 Form I was weighed into mortar and ground for 5 min. […] 9-ING-41 Form I was pressed into two tablets. The weight of tablets was 38.9 mg and 36.2 mg, respectively.

[3] = Dynamic vapor sorption (DVS) analysis; conditions: 80% relative humidity, 25.0±1.0° C.
Protocol: DVS analyses were conducted on an IGAsorp (HidenIsochema Ltd.). For an isotherm test, the chamber temperature was maintained by a water bath at constant 25.0±1.0° C.

[4] = Aqueous solubility study (water or buffers, HPLC of filtrate, XRPD of remaining solids); conditions: for solubility: shaken 200 rpm 24 h
Protocol: The solubility of 9-ING-41 polymorphic forms in water or buffers were determined using HPLC under the following conditions: • Instrument: Agilent 1260 Infinity Series • Diluent: Acetonitrile • Flow rate: 1.5 mL/min • Mobile phase: A: 0.05% TFA in water • B: 0.05% TFA in Acetonitrile • Injection volume: 1 μL • Column: XDB-C18, 4.6*50 mm, 1.8 μm • Column Temperature: 40° C. • Detection: 220 nm • Run Time: 8 minutes (2 minutes delay for next injection) • Gradient (T/B %): 0.0/70, 6.0/100, 8.0/100 10-30 mg of 9-ING-41 Form I was added to 2 mL of water or a buffer solution buffered at pH=1.2, 4.5, or 6.8. The samples were shaken at 200 rpm in a shaker for 24 h. The sample vials were visually examined to ensure saturation. 1 mL of each suspension was filtered at 24 hours through a 0.22 µm nylon syringe filter into another clean clear glass vial. The filtrate was analyzed using HPLC (accurately dilute if necessary) and the remaining solids were analyzed using XRPD.

solubility at 30 min ([1]; aqueous with cosolvent or surfactant or cyclodextrin, thermodynamic from solid, 30% acetonitrile/70% water (vol/vol), after 30 minutes)	crystalline form after grinding (XRPD) ([2]; ground in mortar for 5 min)	crystalline form after pressing into tablets (XRPD) ([2]; pressed into tablets, then ground into powder)	crystalline form of remaining solids (XRPD) ([1]; after shaking in 30% acetonitrile/70% water)	solubility at 24 h ([1]; aqueous with cosolvent or surfactant or cyclodextrin, thermodynamic from solid, 30% acetonitrile/70% water (vol/vol), after 24 hours, read-out: 9-ING-41 in filtrate (solubility) by HPLC)	solubility at 2 h ([1]; aqueous with cosolvent or surfactant or cyclodextrin, thermodynamic from solid, 30% acetonitrile/70% water (vol/vol), after two hours, read-out: 9-ING-41 in filtrate (solubility) by HPLC)	weight gain (DVS) [3]	crystalline form of remaining solids (XRPD) ([4]; after 24 h in water or pH 1.2, 4.5, 6.8 buffer)	solubility ([4]; pH 1.2 buffer)	solubility ([4]; pH 4.5 buffer)	solubility ([4]; pH 6.8 buffer)	9-ING-41 in the filtrates by HPLC ([4]; water or pH 1.2, 4.5, 6.8 buffer, filtrate at 24 hours)	solubility ([4]; water)	SMILES
57 µg/mL (≈ 141 µM)	–	–	–	–	–	–	–	–	–	–	–	–	Cn1cc(C2=C(c3coc4ccc(F)cc34)C(=O)NC2=O)c2cc3c(cc21)OCO3 [Amorphous 9-ING-41, 3-(5-fluorobenzofuran-3-yl)-4-(5-methyl-5H-[1,3]dioxolo[4,5-f]indol-7-yl)pyrrole-2,5-dione]
–	had not changed	had not changed	no change in crystalline form	48 µg/mL (≈ 119 µM)	46 µg/mL (≈ 114 µM)	about 0.23 % by weight	no change in crystalline form	poor	poor	poor	could not be detected	poor	Cn1cc(C2=C(c3coc4ccc(F)cc34)C(=O)NC2=O)c2cc3c(cc21)OCO3 [9-ING-41 Form I, 3-(5-fluoro-1-benzofuran-3-yl)-4-[5-methyl-2H,5H-[1,3]dioxolo[4,5-f]indol-7-yl]-2,5-dihydro-1H-pyrrole-2,5-dione]
